Assay results reported in US20260042755A1, “GPR6 INVERSE AGONISTS” (MapLight Therapeutics, Inc., priority 2022, published 2026).

What was measured:
GPR6 = molecular target: T1, GPR6 (Homo sapiens, UniProt P46095); assay: GPR6 antagonist functional cAMP assay (LANCE Ultra cAMP TR-FRET, CHO cells stably expressing GPR6); type: cell-based; conditions: CHO cells stably expressing GPR6, cAMP assay (Example 24)
T1 construct: expressed in transfected cells; host or cells: CHO cells
How it was run: (§1)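 Cells in Krebs-Ringer buffer with 0.1% BSA and 150 μM Ro 20-1724 PDE inhibitor were exposed to compounds for 45 min at 37 °C (0.1% DMSO). cAMP was read by TR-FRET at 665 nm; IC50s came from 4-parameter fits normalized to DMSO and reference compound.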

GPR3 = molecular target: T2, GPR3 (Homo sapiens, UniProt P46089); assay: GPR3 antagonist functional cAMP assay (LANCE Ultra cAMP TR-FRET, CHO cells stably expressing GPR3); type: cell-based; conditions: CHO cells stably expressing GPR3, cAMP assay (Example 24)
T2 construct: expressed in transfected cells; host or cells: CHO cells
T2 sequence (P46089 whole entry, species assumed): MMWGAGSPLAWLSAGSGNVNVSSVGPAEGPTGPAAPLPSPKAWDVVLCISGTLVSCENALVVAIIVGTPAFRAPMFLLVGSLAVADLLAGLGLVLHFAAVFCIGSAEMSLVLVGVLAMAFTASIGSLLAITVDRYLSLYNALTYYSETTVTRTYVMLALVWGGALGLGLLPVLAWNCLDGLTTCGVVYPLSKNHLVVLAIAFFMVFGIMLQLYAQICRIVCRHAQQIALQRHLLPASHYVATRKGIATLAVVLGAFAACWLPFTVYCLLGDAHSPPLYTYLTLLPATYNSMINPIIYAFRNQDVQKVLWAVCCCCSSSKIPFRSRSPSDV
How it was run: as §1

T1 sequence (P46095 whole entry): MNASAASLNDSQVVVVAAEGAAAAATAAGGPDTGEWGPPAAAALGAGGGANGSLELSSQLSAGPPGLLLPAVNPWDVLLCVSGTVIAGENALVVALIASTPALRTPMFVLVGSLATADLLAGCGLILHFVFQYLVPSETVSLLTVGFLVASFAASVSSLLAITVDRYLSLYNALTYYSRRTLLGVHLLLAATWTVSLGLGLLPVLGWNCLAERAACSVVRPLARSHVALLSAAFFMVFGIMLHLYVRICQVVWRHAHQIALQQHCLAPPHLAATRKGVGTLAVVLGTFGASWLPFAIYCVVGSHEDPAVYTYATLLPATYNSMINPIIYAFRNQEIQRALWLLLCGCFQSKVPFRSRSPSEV

Row | Compound | IC50 (GPR6) [nM] | IC50 (GPR3) [nM]
1 | O=S(=O)(C1COC1)N1CCc2nc(N3CCC(Oc4ccc(F)cc4F)CC3)c(-c3cn[nH]c3)nc2C1 [Compound 207, 4-(2,4-difluorophenoxy)-1-[6-(oxetane-3-sulfonyl)-3-(1H-pyrazol-4-yl)-5H,6H,7H,8H-pyrido[3,4-b]pyrazin-2-yl]piperidine] | 1000 to 30000 | 1000 to 30000
2 | CC(=O)N1CCc2nc(N3CCC(Oc4ccc(F)cc4F)CC3)c(-c3cccc(C(O)C(F)F)n3)nc2C1 (centres unmarked) [Compound 210, 1-(3-[6-(2,2-difluoro-1-hydroxyethyl)pyridin-2-yl]-2-[4-(2,4-difluorophenoxy)piperidin-1-yl]-5H,6H,7H,8H-pyrido[3,4-b]pyrazin-6-yl)ethan-1-one] | 1000 to 30000 | 1000 to 30000
3 | CC(=O)N1CCc2nc(N3CCC(Oc4ccc(F)cc4F)CC3)c(-c3cnn(C4CN(C)C4)c3)nc2C1 [Compound 212, 1-{2-[4-(2,4-difluorophenoxy)piperidin-1-yl]-3-[1-(1-methylazetidin-3-yl)-1H-pyrazol-4-yl]-5H,6H,7H,8H-pyrido[3,4-b]pyrazin-6-yl}ethan-1-one] | 1000 to 30000 | 1000 to 30000
4 | Cn1cc(-c2nc3cnccc3nc2N2CCN(CC3CCC(F)(F)CC3)CC2)cn1 [Compound 213, 1-[(4,4-difluorocyclohexyl)methyl]-4-[3-(1-methyl-1H-pyrazol-4-yl)pyrido[3,4-b]pyrazin-2-yl]piperazine] | 1000 to 30000 | 1000 to 30000
5 | Cn1cc(-c2nc3cnccc3nc2N2CCN(CC3CCCC(F)(F)C3)CC2)cn1 (centres unmarked) [Compound 214, 1-[(3,3-difluorocyclohexyl)methyl]-4-[3-(1-methyl-1H-pyrazol-4-yl)pyrido[3,4-b]pyrazin-2-yl]piperazine] | 1000 to 30000 | 1000 to 30000
6 | CC(=O)N1CCc2nc(N3CCC(Oc4ccc(F)cc4F)CC3)c(C3CCC(F)(F)CC3)nc2C1 [Compound 217, 1-[3-(4,4-difluorocyclohexyl)-2-[4-(2,4-difluorophenoxy)piperidin-1-yl]-5H,6H,7H,8H-pyrido[3,4-b]pyrazin-6-yl]ethan-1-one] | 1000 to 30000 | 1000 to 30000
7 | CC(=O)N1CCc2nc(N3CCC(Oc4ccc(F)cc4F)CC3)c(C3CCS(=O)(=O)CC3)nc2C1 [Compound 218, 4-{6-acetyl-2-[4-(2,4-difluorophenoxy)piperidin-1-yl]-5H,6H,7H,8H-pyrido[3,4-b]pyrazin-3-yl}-1λ^6-thiane-1,1-dione] | 1000 to 30000 | 1000 to 30000
8 | COC(=O)c1cc2nc(N3CCC(Oc4ccc(F)cc4F)CC3)c(-c3cncc(OC)n3)nc2cn1 [Compound 221, methyl 2-[4-(2,4-difluorophenoxy)piperidin-1-yl]-3-(6-methoxypyrazin-2-yl)pyrido[3,4-b]pyrazine-7-carboxylate] | 1000 to 30000 | 1000 to 30000
9 | CNC(=O)c1cc2nc(N3CCC(Oc4ccc(F)cc4F)CC3)c(-c3cncc(OC)n3)nc2cn1 [Compound 222, 2-[4-(2,4-difluorophenoxy)piperidin-1-yl]-3-(6-methoxypyrazin-2-yl)-N-methylpyrido[3,4-b]pyrazine-7-carboxamide] | 1000 to 30000 | 1000 to 30000
10 | O=C1CC(N2CCc3nc(N4CCC(Oc5ccc(F)cc5F)CC4)c(-c4cn[nH]c4)nc3C2)CN1 (centres unmarked) [Compound 229, 4-{2-[4-(2,4-difluorophenoxy)piperidin-1-yl]-3-(1H-pyrazol-4-yl)-5H,6H,7H,8H-pyrido[3,4-b]pyrazin-6-yl}pyrrolidin-2-one] | 1000 to 30000 | 1000 to 30000
11 | COc1cncc(-c2nc3cnc(C)cc3nc2N2CCC(Oc3ccc(F)cc3F)CC2)n1 [Compound 230, 2-{2-[4-(2,4-difluorophenoxy)piperidin-1-yl]-7-methylpyrido[3,4-b]pyrazin-3-yl}-6-methoxypyrazine] | 1000 to 30000 | 1000 to 30000

Now from value to compound:

Row | IC50 (GPR6) [nM] | IC50 (GPR3) [nM] | Compound
12 | 1000 to 30000 | 1000 to 30000 | COCC(=O)N1CCc2nc(N3CCC(Oc4ccc(F)cc4F)CC3)c(-c3cnn(C4CCCCO4)c3)nc2C1 (centres unmarked) [Compound 201, 1-{2-[4-(2,4-difluorophenoxy)piperidin-1-yl]-3-[1-(oxan-2-yl)-1H-pyrazol-4-yl]-5H,6H,7H,8H-pyrido[3,4-b]pyrazin-6-yl}-2-methoxyethan-1-one]
13 | 1000 to 30000 | 1000 to 30000 | O=C(CN1CCOCC1)N1CCc2nc(N3CCC(Oc4ccc(F)cc4F)CC3)c(-c3cnn(C4CCCCO4)c3)nc2C1 (centres unmarked) [Compound 202, 1-{2-[4-(2,4-difluorophenoxy)piperidin-1-yl]-3-[1-(oxan-2-yl)-1H-pyrazol-4-yl]-5H,6H,7H,8H-pyrido[3,4-b]pyrazin-6-yl}-2-(morpholin-4-yl)ethan-1-one]
14 | < 100 | 1000 to 30000 | C=CC(=O)N1CCc2nc(N3CCC(Oc4ccc(F)cc4F)CC3)c(-c3cn[nH]c3)nc2C1 [Compound 203, 1-{2-[4-(2,4-difluorophenoxy)piperidin-1-yl]-3-(1H-pyrazol-4-yl)-5H,6H,7H,8H-pyrido[3,4-b]pyrazin-6-yl}prop-2-en-1-one]
15 | 100 to 1000 | ≥ 30000 | O=C(CO)N1CCc2nc(N3CCC(Oc4ccc(F)cc4F)CC3)c(-c3cnn(C4CCCCO4)c3)nc2C1 (centres unmarked) [Compound 204, 1-{2-[4-(2,4-difluorophenoxy)piperidin-1-yl]-3-[1-(oxan-2-yl)-1H-pyrazol-4-yl]-5H,6H,7H,8H-pyrido [3,4-b]pyrazin-6-yl}-2-hydroxyethan-1-one]
16 | 100 to 1000 | 1000 to 30000 | COc1cccc(-c2nc3c(nc2N2CCN(Cc4ccc(F)cc4Cl)CC2)CCN(C(C)=O)C3)n1 [Compound 205, 1-(2-{4-[(2-chloro-4-fluorophenyl)methyl]piperazin-1-yl}-3-(6-methoxypyridin-2-yl)-5H,6H,7H,8H-pyrido[3,4-b]pyrazin-6-yl)ethan-1-one]
17 | 100 to 1000 | 1000 to 30000 | O=C(N1CCc2nc(N3CCC(Oc4ccc(F)cc4F)CC3)c(-c3cn[nH]c3)nc2C1)N1CC(O)C1 [Compound 206, 1-{2-[4-(2,4-difluorophenoxy)piperidin-1-yl]-3-(1H-pyrazol-4-yl)-5H,6H,7H,8H-pyrido[3,4-b]pyrazine-6-carbonyl}azetidin-3-ol]
18 | 100 to 1000 | 1000 to 30000 | CC(=O)N1CCc2nc(N3CCC(Oc4ccc(F)cc4F)CC3)c(-c3cnn(C(C)C#N)c3)nc2C1 (centres unmarked) [Compound 208, 2-(4-{6-acetyl-2-[4-(2,4-difluorophenoxy)piperidin-1-yl]-5H,6H,7H,8H-pyrido[3,4-b]pyrazin-3-yl}-1H-pyrazol-1-yl)propanenitrile]
19 | 100 to 1000 | 1000 to 30000 | CC(=O)N1CCc2nc(N3CCC(Oc4ccc(F)cc4F)CC3)c(-c3cnn(CC4CC4)c3)nc2C1 [Compound 209, 1-{3-[1-(cyclopropylmethyl)-1H-pyrazol-4-yl]-2-[4-(2,4-difluorophenoxy)piperidin-1-yl]-5H,6H,7H,8H-pyrido[3,4-b]pyrazin-6-yl}ethan-1-one]
20 | < 100 | 1000 to 30000 | Cn1cc(-c2nc3c(nc2N2CCC(Oc4ccc(F)cc4F)CC2)CCN(S(C)(=O)=O)C3)cn1 [Compound 211, 4-(2,4-difluorophenoxy)-1-[6-methanesulfonyl-3-(1-methyl-1H-pyrazol-4-yl)-5H,6H,7H,8H-pyrido[3,4-b]pyrazin-2-yl]piperidine]
21 | 100 to 1000 | 1000 to 30000 | COc1ncc(-c2nc3c(nc2N2CCC(Oc4ccc(F)cc4F)CC2)CCN(C(C)=O)C3)nc1OC [Compound 215, 1-{2-[4-(2,4-difluorophenoxy)piperidin-1-yl]-3-(5,6-dimethoxypyrazin-2-yl)-5H,6H,7H,8H-pyrido[3,4-b]pyrazin-6-yl}ethan-1-one]
22 | 100 to 1000 | 1000 to 30000 | Cn1cc(-c2nc3cnc(C#N)cc3nc2N2CCN(Cc3ccc(F)cc3F)CC2)cn1 [Compound 216, 2-{4-[(2,4-difluorophenyl)methyl]piperazin-1-yl}-3-(1-methyl-1H-pyrazol-4-yl)pyrido[3,4-b]pyrazine-7-carbonitrile]
23 | 100 to 1000 | ≥ 30000 | CC(=O)N1CCc2nc(N3CCC(Oc4ccc(F)cc4F)CC3)c(C3=COCCC3)nc2C1 [Compound 219, 1-{2-[4-(2,4-difluorophenoxy)piperidin-1-yl]-3-(3,4-dihydro-2H-pyran-5-yl)-5H,6H,7H,8H-pyrido[3,4-b]pyrazin-6-yl}ethan-1-one]
24 | < 100 | 1000 to 30000 | CCn1cc(-c2nc3c(nc2N2CCC(Oc4ccc(F)cc4F)CC2)CCN(C(C)=O)C3)cn1 [Compound 220, 1-{2-[4-(2,4-difluorophenoxy)piperidin-1-yl]-3-(1-ethyl-1H-pyrazol-4-yl)-5H,6H,7H,8H-pyrido[3,4-b]pyrazin-6-yl}ethan-1-one]
25 | 100 to 1000 | 1000 to 30000 | CC(=O)N1CCc2nc(N3CCC(Oc4ccc(F)cc4F)CC3)c(-c3cccc(OC(F)(F)F)n3)nc2C1 [Compound 223, 1-{2-[4-(2,4-difluorophenoxy)piperidin-1-yl]-3-[6-(trifluoromethoxy)pyridin-2-yl]-5H,6H,7H,8H-pyrido[3,4-b]pyrazin-6-yl}ethan-1-one]
26 | < 100 | 1000 to 30000 | Cn1cc(-c2nc3cnc(N)cc3nc2N2CCN(Cc3ccc(F)cc3F)CC2)cn1 [Compound 226, 2-{4-[(2,4-difluorophenyl)methyl]piperazin-1-yl}-3-(1-methyl-1H-pyrazol-4-yl)pyrido[3,4-b]pyrazin-7-amine]
27 | 100 to 1000 | 1000 to 30000 | Cn1cc(-c2nc3cc(Cl)ncc3nc2N2CCN(Cc3ccc(F)cc3F)CC2)cn1 [Compound 227, 1-[7-chloro-2-(1-methyl-1H-pyrazol-4-yl)pyrido[3,4-b]pyrazin-3-yl]-4-[(2,4-difluorophenyl)methyl] piperazine]
28 | 100 to 1000 | 1000 to 30000 | Cc1cc2nc(N3CCC(Oc4ccc(F)cc4F)CC3)c(-c3cnn(C)c3)nc2cn1 [Compound 228, 4-(2,4-difluorophenoxy)-1-[7-methyl-3-(1-methyl-1H-pyrazol-4-yl)pyrido[3,4-b]pyrazin-2-yl]piperidine]
